The values that follow come from patent publication US20230265151A1, “GIP/GLP1 CO-AGONIST COMPOUNDS” (priority 2020, published 2023).

Like-named read-outs stand apart in the source and are kept apart here. *1 amine or outer side, *2 acyl side, *3 side chain or, on linkers, in order; H or OH if unused. Where a SMILES comes first, the peptide text is derived from it. Side-chain parts run from the residue outwards. [ ]: non-standard residue; d: D form. The star is where a group is joined. αMePhe(2-F) = C[C@](N)(Cc1ccccc1F)C(=O)O; γGlu = O=C(O)[C@H](CCC(=O)[*:2])N[*:1]; C14 diacid = O=C(O)CCCCCCCCCCCCC(=O)*; αMeY = C[C@](N)(Cc1ccc(O)cc1)C(=O)O; αMeL = CC(C)C[C@](C)(N)C(=O)O; Orn = NCCC[C@H](N)C(=O)O; AEEA = NCCOCCOCC(=O)O; Aib = CC(C)(N)C(=O)O

Assay type in all cases: cell-based
One test concerns the target T1, hGIPR (Homo sapiens, UniProt P48546).
T1 construct: expressed in transfected cells
T1 sequence (P48546 22-466): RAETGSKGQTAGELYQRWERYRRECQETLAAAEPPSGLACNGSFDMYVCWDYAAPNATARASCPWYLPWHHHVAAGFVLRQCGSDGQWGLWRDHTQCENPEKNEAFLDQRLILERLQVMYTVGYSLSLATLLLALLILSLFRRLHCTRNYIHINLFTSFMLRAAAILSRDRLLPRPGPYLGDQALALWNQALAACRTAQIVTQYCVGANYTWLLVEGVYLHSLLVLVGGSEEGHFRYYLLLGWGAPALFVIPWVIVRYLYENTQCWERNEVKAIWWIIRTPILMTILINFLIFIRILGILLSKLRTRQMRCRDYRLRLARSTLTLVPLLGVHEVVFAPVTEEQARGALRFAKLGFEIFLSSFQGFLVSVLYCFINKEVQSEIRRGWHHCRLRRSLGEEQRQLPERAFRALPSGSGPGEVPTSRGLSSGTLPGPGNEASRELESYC
Put plainly: Functional cAMP formation (HTRF) in HEK-293 clonal cells expressing hGIPR, 0.1% bovine casein, without or with 1.0% human serum albumin. The method in brief:
(§1)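 Cells were stimulated with peptide for 30 min at 37° C, then lysed in buffer carrying cAMP-d2 and anti-cAMP Eu3+-cryptate for a competitive HTRF read after at least 60 min at room temperature. The 665/620 nm ratio was converted to nM cAMP against a standard curve.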

The next test concerns the target T2, hGCGR (Homo sapiens, UniProt P47871).
T2 construct: expressed in transfected cells
Put plainly: Functional cAMP formation (HTRF) in HEK-293 clonal cells expressing hGCGR, 0.1% bovine casein, without or with 1.0% human serum albumin. The essentials: as §1

A further test has as its target hGLP-1R (Homo sapiens, UniProt P43220). Put plainly: Functional cAMP formation (HTRF) in HEK-293 clonal cells expressing hGLP-1R, 0.1% bovine casein, without or with 1.0% human serum albumin. Also on record: expressed in transfected cells. The settings on record: for EC50: geometric mean. The method in brief: as §1

hGLP-1R, sequence (P43220 24-463): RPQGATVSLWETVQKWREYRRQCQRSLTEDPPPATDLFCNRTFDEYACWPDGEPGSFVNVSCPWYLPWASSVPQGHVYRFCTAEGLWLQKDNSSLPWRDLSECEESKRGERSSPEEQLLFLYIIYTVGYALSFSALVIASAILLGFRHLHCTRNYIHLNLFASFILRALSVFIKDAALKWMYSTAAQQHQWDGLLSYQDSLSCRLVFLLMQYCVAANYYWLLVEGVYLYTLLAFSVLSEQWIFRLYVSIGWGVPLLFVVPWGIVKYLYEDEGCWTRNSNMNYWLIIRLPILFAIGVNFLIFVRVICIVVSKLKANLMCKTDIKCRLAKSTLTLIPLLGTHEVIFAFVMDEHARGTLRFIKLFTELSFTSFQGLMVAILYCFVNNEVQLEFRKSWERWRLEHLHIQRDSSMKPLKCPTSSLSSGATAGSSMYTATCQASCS
T2 sequence (P47871 26-477): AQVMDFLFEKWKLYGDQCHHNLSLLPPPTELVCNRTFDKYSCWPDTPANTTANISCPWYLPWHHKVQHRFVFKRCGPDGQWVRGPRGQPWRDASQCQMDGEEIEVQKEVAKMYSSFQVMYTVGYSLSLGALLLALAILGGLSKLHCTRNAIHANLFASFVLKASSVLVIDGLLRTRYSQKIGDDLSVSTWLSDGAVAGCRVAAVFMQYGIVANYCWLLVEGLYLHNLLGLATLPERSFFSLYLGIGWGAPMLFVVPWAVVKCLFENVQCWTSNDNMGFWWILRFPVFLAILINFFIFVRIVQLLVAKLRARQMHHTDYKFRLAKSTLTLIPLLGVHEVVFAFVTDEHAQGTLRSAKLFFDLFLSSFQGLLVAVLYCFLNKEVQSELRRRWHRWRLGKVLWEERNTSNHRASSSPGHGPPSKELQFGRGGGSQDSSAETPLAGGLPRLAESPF

As for `CC[C@H](C)[C@H](NC(=O)[C@H](CCCN)NC(=O)[C@H](CC(=O)O)NC(=O)[C@H](CC(C)C)NC(=O)[C@](C)(CC(C)C)NC(=O)[C@@H](NC(=O)C(C)(C)NC(=O)[C@H](Cc1ccncc1)NC(=O)[C@H](CC(=O)O)NC(=O)[C@H](CO)NC(=O)[C@@H](NC(=O)[C@](C)(Cc1ccccc1F)NC(=O)[C@@H](NC(=O)CNC(=O)[C@H](CCC(=O)O)NC(=O)C(C)(C)NC(=O)[C@@H](N)Cc1ccc(O)cc1)[C@@H](C)O)[C@@H](C)O)[C@@H](C)CC)C(=O)N[C@@H](C)C(=O)N[C@@H](CCC(N)=O)C(=O)NC(C)(C)C(=O)N[C@@H](CCCCNC(=O)COCCOCCNC(=O)COCCOCCNC(=O)CC[C@H](NC(=O)CCCCCCCCCCOc1ccc(C(=O)O)cc1)C(=O)O)C(=O)N[C@@H](Cc1ccccc1)C(=O)N[C@H](C(=O)N[C@H](CCC(=O)O)C(=O)N[C@@](C)(Cc1ccc(O)cc1)C(=O)N[C@@H](CC(C)C)C(=O)N[C@H](C(=O)N[C@@H](CCCCNC(=O)COCCOCCNC(=O)COCCOCCNC(=O)CC[C@H](NC(=O)CCCCCCCCCCOc1ccc(C(=O)O)cc1)C(=O)O)C(=O)NCC(=O)NCC(=O)N1CCC[C@H]1C(=O)N[C@@H](CO)C(=O)N[C@@H](CO)C(=O)NCC(=O)N[C@@H](C)C(=O)N1CCC[C@H]1C(=O)N1CCC[C@H]1C(=O)N1CCC[C@H]1C(=O)N[C@@H](CO)C(N)=O)[C@@H](C)CC)[C@@H](C)CC` [Example 331], the EC50 at hGIPR (hGIPR EC50, nM (SEM, n), cAMP, 37° C., 0.1% bovine casein (no human serum albumin), geometric mean) was 0.0113 nM; at hGCGR (hGCGR EC50, nM (SEM, n), cAMP, 37° C., 0.1% bovine casein (no human serum albumin), geometric mean) it was greater than 9950 nM; on hGCGR (hGCGR EC50, nM (SEM, n), cAMP, 37° C., 0.1% bovine casein and 1.0% human serum albumin, geometric mean (SEM, n)), greater than 9950 nM; on hGLP-1R (hGLP-1R EC50, nM (SEM, n), cAMP, 37° C., 0.1% bovine casein (no human serum albumin)) it was 0.436 nM. Besides, the Emax on hGLP-1R (HEK293, read-out: hGLP-1R Emax, % ± SEM, cAMP, 37° C., 0.1% bovine casein and 1.0% human serum albumin, percent of maximal response to GLP-1(7-36)NH2) stood at 114%.

`CC[C@H](C)[C@H](NC(=O)[C@H](CC(C)C)NC(=O)[C@](C)(Cc1ccc(O)cc1)NC(=O)[C@@H](CCC(=O)O)NC(=O)[C@@H](NC(=O)[C@H](Cc1ccccc1)NC(=O)[C@H](CCCCNC(=O)COCCOCCNC(=O)COCCOCCNC(=O)CC[C@H](NC(=O)CCCCCCCCCCCCC(=O)O)C(=O)O)NC(=O)C(C)(C)NC(=O)[C@H](CCC(N)=O)NC(=O)[C@H](C)NC(=O)[C@H](CCCCNC(=O)COCCOCCNC(=O)COCCOCCNC(=O)CC[C@H](NC(=O)CCCCCCCCCCCCC(=O)O)C(=O)O)NC(=O)[C@H](CCCN)NC(=O)[C@H](CC(=O)O)NC(=O)[C@H](CC(C)C)NC(=O)[C@](C)(CC(C)C)NC(=O)[C@@H](NC(=O)C(C)(C)NC(=O)[C@@H](NC(=O)[C@H](CC(=O)O)NC(=O)[C@H](CO)NC(=O)[C@@H](NC(=O)[C@](C)(Cc1ccccc1F)NC(=O)[C@@H](NC(=O)CNC(=O)[C@H](CCC(=O)O)NC(=O)C(C)(C)NC(=O)[C@@H](N)Cc1ccc(O)cc1)[C@@H](C)O)[C@@H](C)O)C(C)C)[C@@H](C)CC)[C@@H](C)CC)C(=O)N[C@@H](CCCN)C(=O)NCC(=O)NCC(=O)N1CCC[C@H]1C(=O)N[C@@H](CO)C(=O)N[C@@H](CO)C(=O)NCC(=O)N[C@@H](C)C(=O)N1CCC[C@H]1C(=O)N1CCC[C@H]1C(=O)N1CCC[C@H]1C(=O)N[C@@H](CO)C(N)=O` [Example 407] (H-Y[Aib]EGT[αMePhe(2-F)]TSDV[Aib]I[αMeL]LD[Orn]K([AEEA-AEEA-γGlu-C14 diacid])AQ[Aib]K([AEEA-AEEA-γGlu-C14 diacid])FI[dE][αMeY]LI[Orn]GGPSSGAPPPS-NH2): the Emax was found to be 95.4% at hGIPR (HEK293, cAMP, 37° C., 0.1% bovine casein and 1.0% human serum albumin, percent of maximal response to GIP(1-42)NH2, read-out: hGIPR Emax, % ± SEM); 97.2% at hGLP-1R (HEK293, cAMP, 37° C., 0.1% bovine casein and 1.0% human serum albumin, percent of maximal response to GLP-1(7-36)NH2, read-out: hGLP-1R Emax, % ± SEM); 100% on hGLP-1R (HEK293, cAMP, 37° C., 0.1% bovine casein, percent of maximal response to GLP-1(7-36)NH2, arithmetic mean, read-out: hGLP-1R Emax, % ± SEM). The EC50 on hGIPR (cAMP, 37° C., 0.1% bovine casein (no human serum albumin), geometric mean, read-out: hGIPR EC50, nM (SEM, n)) was 0.0114 nM; on hGIPR (cAMP, 37° C., 0.1% bovine casein and 1.0% human serum albumin, geometric mean (SEM, n), read-out: hGIPR EC50, nM (SEM, n)), 1.87 nM; on hGCGR (cAMP, 37° C., 0.1% bovine casein (no human serum albumin), geometric mean, read-out: hGCGR EC50, nM (SEM, n)), greater than 9950 nM; at hGCGR (cAMP, 37° C., 0.1% bovine casein and 1.0% human serum albumin, geometric mean (SEM, n), read-out: hGCGR EC50, nM (SEM, n)) it was greater than 9950 nM; at hGLP-1R (cAMP, 37° C., 0.1% bovine casein (no human serum albumin), read-out: hGLP-1R EC50, nM (SEM, n)) it was 0.156 nM.

With `CCCCCCCCCCCCCCCC(=O)N[C@@H](CCC(=O)NCCOCCOCC(=O)NCCOCCOCC(=O)NCCOCCOCC(=O)NCCCC[C@H](NC(=O)CNC(=O)CNC(=O)[C@H](CCC(=O)O)NC(=O)[C@@H](NC(=O)[C@H](CC(C)C)NC(=O)[C@](C)(Cc1ccc(O)cc1)NC(=O)[C@@H](CCC(=O)O)NC(=O)[C@@H](NC(=O)[C@H](Cc1ccccc1)NC(=O)[C@H](CCC(=O)O)NC(=O)C(C)(C)NC(=O)[C@H](CCC(N)=O)NC(=O)[C@H](C)NC(=O)[C@H](CCCCNC(=O)COCCOCCNC(=O)COCCOCCNC(=O)COCCOCCNC(=O)CC[C@H](NC(=O)CCCCCCCCCCCCCCC)C(=O)O)NC(=O)[C@H](CCCN)NC(=O)[C@H](CC(=O)O)NC(=O)[C@H](CC(C)C)NC(=O)[C@](C)(CC(C)C)NC(=O)[C@@H](NC(=O)[C@H](CO)NC(=O)[C@H](Cc1ccncc1)NC(=O)[C@H](CC(=O)O)NC(=O)[C@H](CO)NC(=O)[C@@H](NC(=O)[C@](C)(Cc1ccccc1F)NC(=O)[C@@H](NC(=O)CNC(=O)[C@H](CCC(=O)O)NC(=O)C(C)(C)NC(=O)[C@@H](N)Cc1ccc(O)cc1)[C@@H](C)O)[C@@H](C)O)[C@@H](C)CC)[C@@H](C)CC)[C@@H](C)CC)C(=O)N[C@@H](CO)C(=O)N[C@@H](CO)C(=O)NCC(=O)N[C@@H](C)C(=O)N1CCC[C@H]1C(=O)N1CCC[C@H]1C(=O)N1CCC[C@H]1C(=O)N[C@@H](CO)C(N)=O)C(=O)O` [Example 31], the concentration for a half-maximal effect (EC50) on hGIPR (0.1% bovine casein and 1.0% human serum albumin, 37° C., geometric mean, read-out: hGIPR EC50, nM (SEM, n)) was 0.147 nM; at hGCGR (0.1% bovine casein and 1.0% human serum albumin, 37° C., geometric mean, read-out: hGCGR EC50, nM (SEM, n)) it was greater than 9950 nM; on hGCGR (cAMP, incubated at 37° C., 0.1% bovine casein (no human serum albumin), geometric mean, read-out: hGCGR EC50, nM (SEM, n)) it was greater than 9950 nM; at hGLP-1R (0.1% bovine casein and 1.0% human serum albumin, 37° C., read-out: hGLP-1R EC50, nM (SEM, n)) it was 0.545 nM. Moreover, the Emax stood at 88.9% at hGIPR (HEK293, 0.1% bovine casein and 1.0% human serum albumin, 37° C., percent of maximal response to GIP(1-42)NH2, read-out: hGIPR Emax, % ± SEM); 109 ± 7.91% at hGLP-1R (HEK293, 0.1% bovine casein and 1.0% human serum albumin, 37° C., percent of maximal response to GLP-1(7-36)NH2, read-out: hGLP-1R Emax, % ± SEM); 91.3 ± 16.1% at hGLP-1R (HEK293, percent of maximal response to GLP-1(7-36)NH2, 37° C., 0.1% bovine casein, arithmetic mean, read-out: hGLP-1R Emax, % ± SEM).

As for `CC[C@H](C)[C@H](NC(=O)[C@H](CC(C)C)NC(=O)[C@](C)(Cc1ccc(O)cc1)NC(=O)[C@H](CCCCNC(=O)COCCOCCNC(=O)COCCOCCNC(=O)CC[C@H](NC(=O)CCCCCCCCCCCCC(=O)O)C(=O)O)NC(=O)[C@@H](NC(=O)[C@](C)(Cc1ccccc1)NC(=O)[C@H](CCC(=O)O)NC(=O)C(C)(C)NC(=O)[C@H](CCC(N)=O)NC(=O)[C@H](C)NC(=O)[C@H](CCCCNC(=O)COCCOCCNC(=O)COCCOCCNC(=O)CC[C@H](NC(=O)CCCCCCCCCCCCC(=O)O)C(=O)O)NC(=O)[C@H](CCCN)NC(=O)[C@H](CC(=O)O)NC(=O)[C@H](CC(C)C)NC(=O)[C@](C)(CC(C)C)NC(=O)[C@@H](NC(=O)[C@H](CO)NC(=O)[C@@H](NC(=O)[C@H](CC(=O)O)NC(=O)[C@H](CO)NC(=O)[C@@H](NC(=O)[C@](C)(Cc1ccccc1F)NC(=O)[C@@H](NC(=O)CNC(=O)[C@H](CCC(=O)O)NC(=O)C(C)(C)NC(=O)[C@@H](N)Cc1ccc(O)cc1)[C@@H](C)O)[C@@H](C)O)C(C)C)[C@@H](C)CC)[C@@H](C)CC)C(=O)N[C@@H](CCC(=O)O)C(=O)NCC(=O)NCC(=O)N1CCC[C@H]1C(=O)N[C@@H](CO)C(=O)N[C@@H](CO)C(=O)NCC(=O)N[C@@H](C)C(=O)N1CCC[C@H]1C(=O)N1CCC[C@H]1C(=O)N1CCC[C@H]1C(=O)N[C@@H](CO)C(N)=O` [Example 118], at hGIPR (HEK293, read-out: hGIPR Emax, % ± SEM, percent of maximal response to GIP(1-42)NH2, 37° C., 0.1% bovine casein, arithmetic mean), the Emax is 94.7%. The EC50 is 0.0547 nM on hGIPR (hGIPR EC50, nM (SEM, n), cAMP, incubated at 37° C., 0.1% bovine casein (no human serum albumin), geometric mean); greater than 9950 nM on hGCGR (hGCGR EC50, nM (SEM, n), cAMP, incubated at 37° C., 0.1% bovine casein (no human serum albumin), geometric mean); 0.437 nM at hGLP-1R (hGLP-1R EC50, nM (SEM, n), cAMP, incubated at 37° C., 0.1% bovine casein (no human serum albumin)).
